Reference: US20230107642A1 (Erasca, Inc., priority 2020, published 2023)

target: T1, K-Ras G12C (Homo sapiens, UniProt P01116, G12C); experiment: CAF assay (% CAF; method in Example 7, not in this part); assay type: binding; conditions: 10 uM compound, 1 h incubation
T1 construct: This protein contained 188 amino acids in total, including an N-terminal 6-Histidine tag; made in house; host or cells: E. coli BL21

Going from `C=CC(=O)N1CCN(c2nc(=O)n3c4c(c(-c5ccc(F)cc5F)c(Cl)cc24)SC[C@@H]3CC2CCN(C)CC2)[C@@H](C)C1` [Example 423, (3S)-7-((S)-4-acryloyl-2-methylpiperazin-1-yl)-9-chloro-10-(2,4-difluorophenyl)-3-((1-methylpiperidin-4-yl)methyl)-2H-[1,4]thiazino[2,3,4-ij]quinazolin-5(3H)-one] to `C=CC(=O)N1CCN(c2nc(=O)n3c4c(c(-c5ccc(F)cc5F)c(Cl)cc24)SC[C@@H]3CC2CCOCC2)[C@@H](C)C1` [Example 438, (3S)-7-((S)-4-acryloyl-2-methylpiperazin-1-yl)-9-chloro-10-(2,4-difluorophenyl)-3-((tetrahydro-2H-pyran-4-yl)methyl)-2H-[1,4]thiazino[2,3,4-ij]quinazolin-5(3H)-one], the “% CAF @ 10 uM, 1h” value rises from 34.1% to 92.8%.

First: C=CC(=O)N1CCN(c2nc(=O)n3c4c(c(-c5c(F)cc(F)cc5F)c(Cl)cc24)SC[C@H]3CN2CCN(CC)CC2)[C@@H](C)C1 [Example 424, (R)-7-((S)-4-acryloyl-2-methylpiperazin-1-yl)-9-chloro-3-((4-ethylpiperazin-1-yl)methyl)-10-(2,4,6-trifluorophenyl)-2H-[1,4]thiazino[2,3,4-ij]quinazolin-5(3H)-one]
Second: C=CC(=O)N1CCN(c2nc(=O)n3c4c(c(-c5ccc(F)cc5F)c(Cl)cc24)SC[C@H]3COC2CN(CC)C2)[C@@H](C)C1 [Example 432, (3R)-7-((S)-4-acryloyl-2-methylpiperazin-1-yl)-9-chloro-10-(2,4-difluorophenyl)-3-(((1-ethylazetidin-3-yl)oxy)methyl)-2,3-dihydro-5H-[1,4]thiazino[2,3,4-ij]quinazolin-5-one]
The “% CAF @ 10 uM, 1h” value of the first is higher: 13.9% for the first, 2.6% for the second.

Going from `C=CC(=O)N1CCN(c2nc(=O)n3c4c(c(-c5ccc(F)cc5)c(C(F)(F)F)cc24)SC[C@@H]3CC2CCN(C3COC3)CC2)[C@@H](C)C1` [Example 425, (S)-7-((S)-4-acryloyl-2-methylpiperazin-1-fluorophenyl)-3-((1-(oxetan-3-yl)piperidin-4-yl)methyl)-9-(trifluoromethyl)-2H-[1,4]thiazino[2,3,4-ij]quinazolin-5(3H)-one] to `C=CC(=O)N1CCN(c2nc(=O)n3c4c(c(-c5ccc(F)cc5)c(C(F)(F)F)cc24)SC[C@@H]3CC2CCN(CC(F)F)CC2)[C@@H](C)C1` [Example 428, (S)-7-((S)-4-acryloyl-2-methylpiperazin-1-yl)-3-((1-(2,2-difluoroethyl)piperidin-4-yl)methyl)-10-(4-fluorophenyl)-9-(trifluoromethyl)-2H-[1,4]thiazino[2,3,4-ij]quinazolin-5(3H)-one], the “% CAF @ 10 uM, 1h” value falls from 94.7% to 79.6%.

First: C=CC(=O)N1CCN(c2nc(=O)n3c4c(c(-c5cc(Cl)c(F)cc5F)c(Cl)cc24)SC[C@@H]3CC2CCN(C3COC3)CC2)[C@@H](C)C1 [Example 426, (3S)-7-((S)-4-acryloyl-2-methylpiperazin-1-yl)-9-chloro-10-(5-chloro-2,4-difluorophenyl)-3-((1-(oxetan-3-yl)piperidin-4-yl)methyl)-2H-[1,4]thiazino[2,3,4-ij]quinazolin-5(3H)-one]
Second: C=CC(=O)N1CCN(c2nc(=O)n3c4c(c(-c5ccc(F)cc5F)c(C(F)(F)F)cc24)SC[C@@H]3CC2CCOCC2)[C@@H](C)C1 [Example 437, (3S)-7-((S)-4-acryloyl-2-methylpiperazin-1-yl)-10-(2,4-difluorophenyl)-3-((tetrahydro-2H-pyran-4-yl)methyl)-9-(trifluoromethyl)-2H-[1,4]thiazino[2,3,4-ij]quinazolin-5(3H)-one]
The “% CAF @ 10 uM, 1h” value of the first is lower: 82.8% for the first, 95.7% for the second.

Going from `C=CC(=O)N1CCN(c2nc(=O)n3c4c(c(-c5ccc(F)cc5Cl)c(Cl)cc24)SCC3)[C@@H](C)C1` [Example 427, 7-((S)-4-acryloyl-2-methylpiperazin-1-yl)-9-chloro-10-(2-chloro-4-fluorophenyl)-2,3-dihydro-5H-[1,4]thiazino[2,3,4-ij]quinazolin-5-one] to `C=CC(=O)N1CCN(c2nc(=O)n3c4c(c(-c5ccc(F)c6cccnc56)c(Cl)cc24)SCC3)[C@@H](C)C1` [Example 441, 7-((S)-4-acryloyl-2-methylpiperazin-1-yl)-9-chloro-10-(5-fluoroquinolin-8-yl)-2,3-dihydro-5H-[1,4]thiazino[2,3,4-ij]quinazolin-5-one], the “% CAF @ 10 uM, 1h” value rises from 63.5% to 78.5%.

First: C=CC(=O)N1CCN(c2nc(=O)n3c4c(c(-c5ccc(F)cc5F)c(C(F)(F)F)cc24)S(=O)(=O)C[C@@H]3CC2CCN(CC(F)F)CC2)[C@@H](C)C1 [Example 429, (3S)-7-((S)-4-acryloyl-2-methylpiperazin-1-yl)-3-((1-(2,2-difluoroethyl)piperidin-4-yl)methyl)-10-(2,4-difluorophenyl)-9-(trifluoromethyl)-2H-[1,4]thiazino[2,3,4-ij]quinazolin-5(3H)-one 1,1-dioxide]
Second: C=CC(=O)N1CCN(c2nc(=O)n3c4c(c(-c5ccc(F)cc5F)c(C(F)(F)F)cc24)S(=O)(=O)C[C@@H]3CC2CCN(CC)CC2)[C@@H](C)C1 [Example 434, (3S)-7-((S)-4-acryloyl-2-methylpiperazin-1-yl)-10-(2,4-difluorophenyl)-3-((1-ethylpiperidin-4-yl)methyl)-9-(trifluoromethyl)-2H-[1,4]thiazino[2,3,4-ij]quinazolin-5(3H)-one 1,1-dioxide]
The “% CAF @ 10 uM, 1h” value of the first is higher: 61% for the first, 51.5% for the second.

First: C=CC(=O)N1CCN(c2nc(=O)n3c4c(c(-c5ccc(F)cc5)c(C(F)(F)F)cc24)SC[C@@H]3CN2CCn3c(nnc3C(F)(F)F)C2)[C@@H](C)C1 [Example 430, (S)-7-((S)-4-acryloyl-2-methylpiperazin-1-yl)-10-(4-fluorophenyl)-9-(trifluoromethyl)-3-((3-(trifluoromethyl)-5,6-dihydro-[1,2,4]triazolo[4,3-a]pyrazin-7(8H)-yl)methyl)-2H-[1,4]thiazino[2,3,4-ij]quinazolin-5(3H)-one]
Second: C=CC(=O)N1CCN(c2nc(=O)n3c4c(c(-c5ccc(F)cc5)c(Cl)cc24)SC[C@@H]3CN2CCn3c(nnc3C(F)(F)F)C2)[C@@H](C)C1 [Example 444, (S)-7-((S)-4-acryloyl-2-methylpiperazin-1-yl)-9-chloro-10-(4-fluorophenyl)-3-((3-(trifluoromethyl)-5,6-dihydro-[1,2,4]triazolo[4,3-a]pyrazin-7(8H)-yl)methyl)-2H-[1,4]thiazino[2,3,4-ij]quinazolin-5(3H)-one]
The “% CAF @ 10 uM, 1h” value of the first is higher: 90.9% for the first, 24.1% for the second.

First: C=CC(=O)N1CCN(c2nc(=O)n3c4c(c(-c5ccc(F)cc5F)c(C(F)(F)F)cc24)SC[C@@H](O)C3)[C@@H](C)C1 [Example 431, (3S)-8-((S)-4-acryloyl-2-methylpiperazin-1-yl)-11-(2,4-difluorophenyl)-3-hydroxy-10-(trifluoromethyl)-3,4-dihydro-2H,6H-[1,4]thiazepino[2,3,4-ij]quinazolin-6-one]
Second: C=CC(=O)N1CCN(c2nc(=O)n3c4c(c(-c5ccc(F)cc5F)c(C(F)(F)F)cc24)S[C@@H](CN(C)C)C3)[C@@H](C)C1 [Example 442, (2S)-7-((S)-4-acryloyl-2-methylpiperazin-1-yl)-10-(2,4-difluorophenyl)-2-((dimethylamino)methyl)-9-(trifluoromethyl)-2,3-dihydro-5H-[1,4]thiazino[2,3,4-ij]quinazolin-5-one]
The “% CAF @ 10 uM, 1h” value of the first is higher: 90% for the first, 87% for the second.

Compared with `C=CC(=O)N1CCN(c2nc(=O)n3c4c(c(-c5ccc(F)cc5F)c(Cl)cc24)SC2(CC2)C3)[C@@H](C)C1` [Example 433, 7′-((S)-4-acryloyl-2-methylpiperazin-1-yl)-9′-chloro-10′-(2,4-difluorophenyl)-3′H,5′H-spiro[cyclopropane-1,2′-[1,4]thiazino[2,3,4-ij]quinazolin]-5′-one], `C=CC(=O)N1CCN(c2nc(=O)n3c4c(c(-c5ccc(F)cc5F)c(C(F)(F)F)cc24)SC[C@@H]3COC)[C@@H](C)C1` [Example 435, (3S)-7-((S)-4-acryloyl-2-methylpiperazin-1-yl)-10-(2,4-difluorophenyl)-3-(methoxymethyl)-9-(trifluoromethyl)-2H-[1,4]thiazino[2,3,4-ij]quinazolin-5(3H)-one] is higher in “% CAF @ 10 uM, 1h” value: 25.3% for the first, 95.8% for the second.

First: C=CC(=O)N1CCN(c2nc(=O)n3c4c(c(-c5ccc(F)cc5F)c(C(F)(F)F)cc24)S(=O)(=O)C[C@@H]3COC)[C@@H](C)C1 [Example 436, (3S)-7-((S)-4-acryloyl-2-methylpiperazin-1-yl)-10-(2,4-difluorophenyl)-3-(methoxymethyl)-9-(trifluoromethyl)-2H-[1,4]thiazino[2,3,4-ij]quinazolin-5(3H)-one 1,1-dioxide]
Second: C=CC(=O)N1C[C@H](C)N(c2nc(=O)n3c4c(c(-c5cc(F)c(F)cc5F)c(C(F)(F)F)cc24)SC[C@@H]3CN2CCN(CC(F)F)CC2)C[C@H]1C [Example 443, (3S)-7-((2S,5R)-4-acryloyl-2,5-dimethylpiperazin-1-yl)-3-((4-(2,2-difluoroethyl)piperazin-1-yl)methyl)-9-(trifluoromethyl)-10-(2,4,5-trifluorophenyl)-2H-[1,4]thiazino[2,3,4-ij]quinazolin-5(3H)-one]
The “% CAF @ 10 uM, 1h” value of the first is higher: 72.5% for the first, 48.2% for the second.

Compared with `O=C1CC2CN(c3nc(=O)n4c5c(c(-c6ccc(F)cc6F)c(C(F)(F)F)cc35)SCC4)CC(C1)N2C(=O)/C=C/C(F)F` [Example 439, (E)-7-(9-(4,4-difluorobut-2-enoyl)-7-oxo-3,9-diazabicyclo[3.3.1]nonan-3-yl)-10-(2,4-difluorophenyl)-9-(trifluoromethyl)-2,3-dihydro-5H-[1,4]thiazino[2,3,4-ij]quinazolin-5-one], `O=C1CC2CN(c3nc(=O)n4c5c(c(-c6ccc(F)cc6F)c(C(F)(F)F)cc35)SCC4)CC(C1)N2C(=O)/C=C/C(F)(F)F` [Example 440, (E)-10-(2,4-difluorophenyl)-7-(7-oxo-9-(4,4,4-trifluorobut-2-enoyl)-3,9-diazabicyclo[3.3.1]nonan-3-yl)-9-(trifluoromethyl)-2,3-dihydro-5H-[1,4]thiazino[2,3,4-ij]quinazolin-5-one] is lower in “% CAF @ 10 uM, 1h” value: 97% for the first, 96% for the second.
